The target in test [1] is T1, Prothrombin (Homo sapiens, UniProt P00734). Description: Inhibition of human thrombin at 1 ug/ml preincubated for 10 mins followed by Ac-FVR-AMC substrate addition measured within 10 mins by fluorescence assay relative to control.
For test [2], the target named is T1, Prothrombin. Description: Inhibition of human thrombin preincubated for 10 mins followed by Ac-FVR-AMC substrate addition measured within 10 mins by fluorescence assay.
A further test relates to Rattus norvegicus. Description: Anticoagulant activity in Sprague-Dawley rat assessed as inhibition of arteriovenous thrombosis at 0.5 mg/ml administered 3 days prior to testing measured on day 4 relative to control. Format: functional.

The record followed here is ChEMBL document CHEMBL3797073 (Bioorg Med Chem, 2016).

Usually inhibition stands for the share of the control response that was lost under treatment. Low readings indicate a response near the control, high ones a response far below the control.

`CCn1c(CNc2ccc(C(=N)N)cc2F)nc2cc(C(=O)N(CCC(=O)O)c3ccc(C)c(C)c3)ccc21` showed an inhibition at Prothrombin [1] of 91.6%. In addition, the IC50 on Prothrombin [2] (read-out: IC50) stood at 10.1 nM.

Regarding `CCn1c(CNc2ccc(C(=N)N)cc2F)nc2cc(C(=O)N(CCC(=O)O)c3ccc(C)c(F)c3)ccc21`, the inhibition against Prothrombin [1] stood at 87.5%.

On Prothrombin [1], `CCn1c(CNc2ccc(C(=N)N)cc2F)nc2cc(C(=O)N(CCC(=O)O)c3ccc(F)c(F)c3)ccc21` gave an inhibition of 93.8%. The IC50 was 9.17 nM at Prothrombin [2] (read-out: IC50) and 9.12 nM on Prothrombin [2] (read-out: pIC50 (converted)).

`CCn1c(CNc2ccc(C(=N)N)cc2F)nc2cc(C(=O)N(CCC(=O)O)c3cccc(C)n3)ccc21` displayed an inhibition against Prothrombin [1] of 93.6%. In addition, the IC50 at Prothrombin [2] (read-out: IC50) is 2.16 nM; on Prothrombin [2] (read-out: pIC50 (converted)), 2.14 nM. Also, the “inhibition (INH)” value with Rattus norvegicus is 84.66%.

`CCn1c(CNc2ccc(C(=N)N)cc2F)nc2cc(C(=O)N(CCC(=O)O)c3c(C)cccc3C)ccc21` had an inhibition against Prothrombin [1] of 92.5%. In addition, the results for the IC50 on Prothrombin [2] (read-out: IC50) and at Prothrombin [2] (read-out: pIC50 (converted)) were 1.81 nM and 1.82 nM, respectively.

For the compound `CCn1c(CNc2ccc(C(=N)N)cc2F)nc2cc(C(=O)N(CCC(=O)O)c3cc(C)cc(C)c3)ccc21`, the inhibition at Prothrombin [1] stood at 89%.

For the compound `CCn1c(CNc2ccc(C(=N)N)cc2F)nc2cc(C(=O)N(CCC(=O)O)c3ccc(C)cc3C)ccc21`, the inhibition on Prothrombin [1] came to 91.9%. In addition, the IC50 at Prothrombin [2] (read-out: IC50) was 7.18 nM; at Prothrombin [2] (read-out: pIC50 (converted)), 7.24 nM.

On Prothrombin [1], `CCn1c(CNc2ccc(C(=N)N)cc2F)nc2cc(C(=O)N(CCC(=O)O)c3ccc(F)cc3F)ccc21` gave an inhibition of 92.5%. Moreover, the IC50 is 3.21 nM on Prothrombin [2] (read-out: IC50) and 3.24 nM on Prothrombin [2] (read-out: pIC50 (converted)). In the test with Rattus norvegicus, the “inhibition (INH)” value is reported as 76.23%.

In the case of `CCn1c(CNc2ccc(C(=N)N)cc2F)nc2cc(C(=O)N(CCC(=O)O)c3cccc(C)c3C)ccc21`, the inhibition against Prothrombin [1] came out at 93.2%. The IC50 on Prothrombin [2] (read-out: IC50) is 4.92 nM; on Prothrombin [2] (read-out: pIC50 (converted)), 4.9 nM.

At Prothrombin [1], `CCn1c(CNc2ccc(C(=N)N)cc2F)nc2cc(C(=O)N(CCC(=O)O)c3cc(C)ccn3)ccc21` registered an inhibition of 92%. The IC50 on Prothrombin [2] (read-out: IC50) was 3.69 nM; at Prothrombin [2] (read-out: pIC50 (converted)), 3.72 nM.

As to `CCn1c(CNc2ccc(C(=N)N)cc2F)nc2cc(C(=O)N(CCC(=O)O)c3cc(C)ccc3C)ccc21`, the inhibition against Prothrombin [1] amounted to 93%. Besides, the IC50 was 5.66 nM on Prothrombin [2] (read-out: IC50) and 5.62 nM on Prothrombin [2] (read-out: pIC50 (converted)).

Compound `CCn1c(CNc2ccc(C(=N)N)cc2F)nc2cc(C(=O)N(CCC(=O)O)c3ccc(C)cc3)ccc21` yielded an inhibition at Prothrombin [1] of 88.2%.

As for `Cn1c(CNc2ccc(C(=N)N)cc2)nc2cc(C(=O)N(CCC(=O)O)c3ccccn3)ccc21` [DABIGATRAN], in the test with Rattus norvegicus, the “inhibition (INH)” value is given as 85.07%.

`CCn1c(CNc2ccc(C(=N)N)cc2F)nc2cc(C(=O)N(CCC(=O)O)c3cc(F)cc(F)c3)ccc21`: at Prothrombin [1], the inhibition was 91.2%.

`CCn1c(CNc2ccc(C(=N)N)cc2F)nc2cc(C(=O)N(CCC(=O)O)c3ccc(F)c(C)c3)ccc21` registered an inhibition at Prothrombin [1] of 92.5%. Further, the IC50 at Prothrombin [2] (read-out: IC50) is 4.18 nM; at Prothrombin [2] (read-out: pIC50 (converted)), 4.17 nM.

`CCn1c(CNc2ccc(C(=N)N)cc2F)nc2cc(C(=O)N(CCC(=O)O)c3cccc(C)c3)ccc21` showed an inhibition on Prothrombin [1] of 92.8%. The IC50 on Prothrombin [2] (read-out: IC50) was 5.44 nM; at Prothrombin [2] (read-out: pIC50 (converted)) it was 5.5 nM.
